From ChEMBL document CHEMBL2390817, “Structure-activity relationship of human glutaminyl cyclase inhibitors having an N-(5-methyl-1H-imidazol-1-yl)propyl thiourea template” (Bioorg Med Chem, 2013) come the findings set out here.

The experiment concerns the target Glutaminyl-peptide cyclotransferase (Homo sapiens, UniProt Q16769). Nature of the experiment: Inhibition of human glutaminyl cyclase expressed in HEK293 cells using L-glutaminyl-beta-naphthylamine as substrate after 1 hr by fluorometric analysis.

Glutaminyl-peptide cyclotransferase, sequence (Q16769 whole entry): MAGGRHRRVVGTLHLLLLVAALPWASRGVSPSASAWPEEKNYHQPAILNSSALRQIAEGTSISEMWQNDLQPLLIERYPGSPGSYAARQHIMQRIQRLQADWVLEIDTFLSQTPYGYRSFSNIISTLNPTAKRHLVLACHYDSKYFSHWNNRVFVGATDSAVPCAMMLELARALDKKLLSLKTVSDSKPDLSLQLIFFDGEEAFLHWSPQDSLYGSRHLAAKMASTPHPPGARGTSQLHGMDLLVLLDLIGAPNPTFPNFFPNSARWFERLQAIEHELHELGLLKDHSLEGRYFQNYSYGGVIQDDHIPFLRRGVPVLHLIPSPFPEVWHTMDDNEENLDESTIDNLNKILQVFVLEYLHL

Take `Cc1cncn1CCCNC(=S)Nc1ccc2cc[nH]c2c1`: the IC50 result is given as “Active”.
As to `Cc1cncn1CCCNC(=S)Nc1ccc2c(c1)CCC2`, the IC50 entry is reported as “Active”.
The same measure for `Cc1cncn1CCCNC(=S)Nc1ccc2cnccc2c1`: “Active”; for `Cc1cncn1CCCNC(=S)Nc1cnc2ccccc2c1`: “Active”.
The same measure for `Cc1cncn1CCCNC(=S)Nc1cccc2cccnc12`: “Active”.
The same measure for `Cc1cncn1CCCNC(=S)Nc1cccc2c1OCCO2`: “Not Active”.
As to `Cc1cncn1CCCNC(=S)Nc1cccnc1`, the IC50 result is given as “Active”.
